According to PubChem BioAssay (NCI):
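All cell lines were grown in 96-well plates and treated with compound for 48 hours. At the TGI there is no net growth.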

What was measured:
Assay in all cases: NCI tumour cell line growth inhibition, 48 h
NCI-H23 lung = test system: NCI-H23 lung
HT29 colon = test system: HT29 colon
SK-MEL-5 melanoma = test system: SK-MEL-5 melanoma
OVCAR-5 ovarian = test system: OVCAR-5 ovarian
TK-10 renal = test system: TK-10 renal
HS 578T breast = test system: HS 578T breast
ACHN renal = test system: ACHN renal
SR leukemia = test system: SR leukemia
NCI/ADR-RES ovarian = test system: NCI/ADR-RES ovarian
DU-145 prostate = test system: DU-145 prostate
COLO 205 colon = test system: COLO 205 colon
NCI-H522 lung = test system: NCI-H522 lung
SK-MEL-2 melanoma = test system: SK-MEL-2 melanoma
RXF 393 renal = test system: RXF 393 renal
CAKI-1 renal = test system: CAKI-1 renal
MCF7 breast = test system: MCF7 breast
SK-OV-3 ovarian = test system: SK-OV-3 ovarian
M14 melanoma = test system: M14 melanoma
T-47D breast = test system: T-47D breast

CCCCCCC1OC23OC1CCC2C(O)CCC3O (stereo not given)
TGI (NCI-H23 lung): > 100 µM
TGI (HT29 colon): > 100 µM
TGI (SK-MEL-5 melanoma): > 100 µM
TGI (OVCAR-5 ovarian): > 100 µM
TGI (TK-10 renal): > 100 µM
TGI (HS 578T breast): > 100 µM
TGI (ACHN renal): > 100 µM
TGI (SR leukemia): > 100 µM
TGI (NCI/ADR-RES ovarian): > 100 µM
TGI (DU-145 prostate): > 100 µM
TGI (COLO 205 colon): > 100 µM
TGI (NCI-H522 lung): > 100 µM
TGI (SK-MEL-2 melanoma): > 100 µM
TGI (RXF 393 renal): > 100 µM
TGI (CAKI-1 renal): > 100 µM
TGI (MCF7 breast): > 100 µM

COc1cc(Nc2nc3cc(C)ccc3nc2-c2ccccc2)cc(OC)c1OC
TGI (NCI-H23 lung): 57 µM
TGI (HT29 colon): 33.7 µM
TGI (SK-OV-3 ovarian): > 100 µM
TGI (SK-MEL-5 melanoma): 35.1 µM
TGI (OVCAR-5 ovarian): > 100 µM
TGI (TK-10 renal): > 100 µM
TGI (ACHN renal): > 100 µM
TGI (SR leukemia): 69.9 µM
TGI (M14 melanoma): > 100 µM
TGI (COLO 205 colon): 43.7 µM
TGI (NCI-H522 lung): 90.6 µM
TGI (SK-MEL-2 melanoma): 45.3 µM
TGI (CAKI-1 renal): > 100 µM

CC1(C)CC(=O)C(C(=O)Nc2cccs2)=C(O)C1
TGI (NCI-H23 lung): 95.7 µM
TGI (HT29 colon): > 100 µM
TGI (SK-OV-3 ovarian): > 100 µM
TGI (SK-MEL-5 melanoma): > 100 µM
TGI (OVCAR-5 ovarian): > 100 µM
TGI (TK-10 renal): > 100 µM
TGI (ACHN renal): > 100 µM
TGI (SR leukemia): > 100 µM
TGI (M14 melanoma): > 100 µM
TGI (COLO 205 colon): 33.7 µM
TGI (NCI-H522 lung): > 100 µM
TGI (SK-MEL-2 melanoma): > 100 µM
TGI (RXF 393 renal): > 100 µM
TGI (CAKI-1 renal): 43.6 µM

CC(=O)NC(CCCNC(=O)OCc1ccccc1)C(=O)NCc1ccccc1 (stereo not given)
TGI (NCI-H23 lung): > 100 µM
TGI (HT29 colon): > 100 µM
TGI (SK-OV-3 ovarian): > 100 µM
TGI (SK-MEL-5 melanoma): > 100 µM
TGI (OVCAR-5 ovarian): > 100 µM
TGI (TK-10 renal): > 100 µM
TGI (ACHN renal): > 100 µM
TGI (M14 melanoma): > 100 µM
TGI (COLO 205 colon): > 100 µM
TGI (NCI-H522 lung): > 100 µM
TGI (SK-MEL-2 melanoma): > 100 µM
TGI (RXF 393 renal): > 100 µM
TGI (CAKI-1 renal): > 100 µM

CC(C)(C)C1CC[C@H]2c3c([nH]c4ccccc34)[C@H]3C(=O)N(c4ccc(F)cc4)C(=O)[C@H]3[C@H]2C1 (stereo not given in full)
TGI (NCI-H23 lung): 33.4 µM
TGI (SK-OV-3 ovarian): 32 µM
TGI (SK-MEL-5 melanoma): 35.8 µM
TGI (OVCAR-5 ovarian): 80 µM
TGI (TK-10 renal): 30.8 µM
TGI (ACHN renal): 27.2 µM
TGI (M14 melanoma): 38.4 µM
TGI (COLO 205 colon): 30.4 µM
TGI (NCI-H522 lung): 25.3 µM
TGI (SK-MEL-2 melanoma): 33.2 µM
TGI (RXF 393 renal): 43.9 µM
TGI (CAKI-1 renal): 32.5 µM

CCOC(=O)C1C(NC(N)=O)N(Cc2ccccc2)C(=O)N1Cc1ccccc1 (stereo not given)
TGI (HT29 colon): > 100 µM
TGI (SK-OV-3 ovarian): > 100 µM
TGI (SK-MEL-5 melanoma): > 100 µM
TGI (OVCAR-5 ovarian): > 100 µM
TGI (TK-10 renal): > 100 µM
TGI (ACHN renal): > 100 µM
TGI (SR leukemia): > 100 µM
TGI (M14 melanoma): > 100 µM
TGI (COLO 205 colon): > 100 µM
TGI (NCI-H522 lung): > 100 µM
TGI (SK-MEL-2 melanoma): > 100 µM
TGI (CAKI-1 renal): > 100 µM

CCOC(=O)C1(C)CCC(C(=O)OC)C1=O (stereo not given)
TGI (NCI-H23 lung): > 100 µM
TGI (HT29 colon): > 100 µM
TGI (SK-OV-3 ovarian): > 100 µM
TGI (SK-MEL-5 melanoma): > 100 µM
TGI (OVCAR-5 ovarian): > 100 µM
TGI (TK-10 renal): > 100 µM
TGI (ACHN renal): > 100 µM
TGI (SR leukemia): 51 µM
TGI (M14 melanoma): > 100 µM
TGI (COLO 205 colon): > 100 µM
TGI (NCI-H522 lung): 31.7 µM
TGI (SK-MEL-2 melanoma): > 100 µM
TGI (RXF 393 renal): > 100 µM
TGI (CAKI-1 renal): > 100 µM

C/C=C1/C=CC2c3[nH]c4ccccc4c3CCN2C1 (stereo not given)
TGI (NCI-H23 lung): > 400 µM
TGI (HT29 colon): > 400 µM
TGI (SK-OV-3 ovarian): > 400 µM
TGI (SK-MEL-5 melanoma): > 400 µM
TGI (TK-10 renal): > 400 µM
TGI (ACHN renal): > 400 µM
TGI (SR leukemia): > 400 µM
TGI (COLO 205 colon): > 400 µM
TGI (NCI-H522 lung): > 400 µM
TGI (SK-MEL-2 melanoma): > 400 µM
TGI (RXF 393 renal): > 400 µM
TGI (CAKI-1 renal): > 400 µM

COC(=O)N/N=c1\cc(C(=O)Nc2ccc(C)c(C)c2)oc2cc(O)ccc12
TGI (NCI-H23 lung): > 100 µM
TGI (HT29 colon): > 100 µM
TGI (SK-OV-3 ovarian): > 100 µM
TGI (SK-MEL-5 melanoma): > 100 µM
TGI (OVCAR-5 ovarian): > 100 µM
TGI (TK-10 renal): > 100 µM
TGI (ACHN renal): > 100 µM
TGI (SR leukemia): > 100 µM
TGI (M14 melanoma): > 100 µM
TGI (COLO 205 colon): > 100 µM
TGI (NCI-H522 lung): > 100 µM
TGI (SK-MEL-2 melanoma): > 100 µM
TGI (RXF 393 renal): > 100 µM
TGI (CAKI-1 renal): > 100 µM

O=c1c2cc(Br)ccc2nc(CNc2ccccc2)n1-c1ccccc1
TGI (NCI-H23 lung): 34.1 µM
TGI (HT29 colon): 46.2 µM
TGI (SK-OV-3 ovarian): > 96.4 µM
TGI (SK-MEL-5 melanoma): 38.1 µM
TGI (OVCAR-5 ovarian): > 100 µM
TGI (TK-10 renal): 45.5 µM
TGI (ACHN renal): > 49.9 µM
TGI (SR leukemia): > 30.4 µM
TGI (M14 melanoma): 47.6 µM
TGI (COLO 205 colon): 31.2 µM
TGI (NCI-H522 lung): 19.9 µM
TGI (SK-MEL-2 melanoma): 62.3 µM
TGI (RXF 393 renal): 44.4 µM
TGI (CAKI-1 renal): 11.6 µM

CCOC(=O)c1cn(-c2ccc([N+](=O)[O-])cc2)c(=S)n2c1nc1ccccc12
TGI (NCI-H23 lung): > 100 µM
TGI (HT29 colon): > 100 µM
TGI (SK-MEL-5 melanoma): > 100 µM
TGI (OVCAR-5 ovarian): > 100 µM
TGI (ACHN renal): > 100 µM
TGI (SR leukemia): > 100 µM
TGI (NCI/ADR-RES ovarian): > 100 µM
TGI (T-47D breast): > 100 µM
TGI (M14 melanoma): > 100 µM
TGI (DU-145 prostate): > 100 µM
TGI (COLO 205 colon): 48.5 µM
TGI (SK-MEL-2 melanoma): 76.7 µM
TGI (RXF 393 renal): > 100 µM
TGI (CAKI-1 renal): > 100 µM
TGI (MCF7 breast): > 100 µM

CC(=O)n1c2ccc(Br)cc2c2nc3ccccc3nc21
TGI (NCI-H23 lung): > 100 µM
TGI (HT29 colon): > 100 µM
TGI (SK-MEL-5 melanoma): > 100 µM
TGI (OVCAR-5 ovarian): > 100 µM
TGI (TK-10 renal): > 100 µM
TGI (ACHN renal): > 100 µM
TGI (SR leukemia): > 100 µM
TGI (NCI/ADR-RES ovarian): > 100 µM
TGI (M14 melanoma): > 100 µM
TGI (DU-145 prostate): > 100 µM
TGI (COLO 205 colon): > 100 µM
TGI (NCI-H522 lung): > 100 µM
TGI (SK-MEL-2 melanoma): > 100 µM
TGI (RXF 393 renal): > 100 µM
TGI (CAKI-1 renal): > 100 µM
TGI (MCF7 breast): > 100 µM
